# System: AMARE
# Assay: Pre-emergence herbicidal action
# Type: in vivo
# Conditions: Table 4, pre-emergence (PE), 320 g/ha, scored after 3 weeks
# Source text: (§1) Seeds of monocotyledonous and dicotyledonous weed plants and crop plants are laid out in sandy loam soil in wood-fiber pots and covered with soil. The compounds of the invention, formulated in the form of wettable powders (WP) or as emulsion concentrates (EC), are then applied to the surface of the covering soil in the form of an aqueous suspension or emulsion at a water application rate equating to 600 to 800 I/ha, with addition of 0.2% wetting agent. After the treatment, the pots are placed in a greenhouse and kept under good growth conditions for the trial plants. The damage to the test plants is scored visually after a test period of 3 weeks by comparison with untreated controls (herbicidal activity in percent (%): 100% activity=the plants have died, 0% activity=like control plants).
# (§2) At the same time, inventive compounds leave Gramineae crops such as barley, wheat, rye, millet/sorghum, corn or rice virtually undamaged when applied pre-emergence, even at high active ingredient dosages. In addition, some substances are also harmless to dicotyledonous crops such as soya, cotton, oilseed rape, sugar beet or potatoes. […] The tables below illustrate, in an exemplary manner, the pre-emergence herbicidal action of the compounds according to the invention, the herbicidal activity being stated in percent.
row,Structure (SMILES),Herbicidal action against AMARE [%]
1,COc1c(F)ccc(COC(=O)c2nc(-c3ccc4occc4c3)cc(N)c2Cl)c1F [Example I-17],100
2,Nc1cc(-c2ccc3ccoc3c2)nc(C(=O)OCc2ccc(F)c(F)c2F)c1Cl [Example I-23],100
3,Nc1cc(-c2ccc3occc3c2)nc(C(=O)OCc2ccc(F)cc2F)c1Cl [Example I-24],90
4,Nc1cc(-c2ccc3ccoc3c2)nc(C(=O)OCc2ccc(F)cc2)c1Cl [Example I-26],100
5,Nc1cc(-c2ccc3ccoc3c2)nc(C(=O)OCc2cc(F)c(F)cc2F)c1Cl [Example I-27],100
6,COc1c(F)ccc(COC(=O)c2nc(-c3ccc4ccoc4c3)cc(N)c2Cl)c1F [Example I-28],100

# System: ECHCG
# Assay: Pre-emergence herbicidal action
# Type: in vivo
# Conditions: Table 4, pre-emergence (PE), 320 g/ha, scored after 3 weeks
# Source text: as §1, §2
row,Structure (SMILES),Herbicidal action against ECHCG [%]
1,COc1c(F)ccc(COC(=O)c2nc(-c3ccc4occc4c3)cc(N)c2Cl)c1F [Example I-17],90
2,Nc1cc(-c2ccc3ccoc3c2)nc(C(=O)OCc2ccc(F)c(F)c2F)c1Cl [Example I-23],90
3,Nc1cc(-c2ccc3occc3c2)nc(C(=O)OCc2ccc(F)cc2F)c1Cl [Example I-24],60
4,Nc1cc(-c2ccc3ccoc3c2)nc(C(=O)OCc2ccc(F)cc2)c1Cl [Example I-26],70
5,Nc1cc(-c2ccc3ccoc3c2)nc(C(=O)OCc2cc(F)c(F)cc2F)c1Cl [Example I-27],60
6,COc1c(F)ccc(COC(=O)c2nc(-c3ccc4ccoc4c3)cc(N)c2Cl)c1F [Example I-28],90

# System: ABUTH
# Assay: Post-emergence herbicidal action
# Type: in vivo
# Conditions: Table 6, post-emergence (PO), 320 g/ha, assessed after about 3 weeks
# Procedure: (§3) Seeds of monocotyledonous and dicotyledonous weed and crop plants are laid out in sandy loam soil in wood-fiber pots, covered with soil and cultivated in a greenhouse under good growth conditions. 2 to 3 weeks after sowing, the test plants are treated at the one-leaf stage. The compounds of the invention, formulated in the form of wettable powders (WP) or as emulsion concentrates (EC), are then sprayed onto the green parts of the plants in the form of an aqueous suspension or emulsion at a water application rate equating to 600 to 800 l/ha, with addition of 0.2% wetting agent. After the test plants have been left to stand in the greenhouse under optimal growth conditions for about 3 weeks, the action of the preparations is assessed visually in comparison to untreated controls (herbicidal action in percent (%): 100% activity=the plants have died, 0% activity=like control plants). […] At the same time, inventive compounds leave Gramineae crops such as barley, wheat, rye, millet/sorghum, corn or rice virtually undamaged when applied post-emergence, even at high active ingredient dosages. In addition, some substances are also harmless to dicotyledonous crops such as soya, cotton, oilseed rape, sugar beet or potatoes. Some of the compounds according to the invention have high selectivity and are therefore suitable for controlling unwanted vegetation in agricultural crops by the post-emergence method. The tables below illustrate, in an exemplary manner, the post-emergence herbicidal action of the compounds according to the invention, the herbicidal activity being stated in percent.
row,Structure (SMILES),Herbicidal action against ABUTH [%]
1,Nc1cc(-c2ccc3ccoc3c2)nc(C(=O)OCc2ccc(F)c(F)c2F)c1Cl [Example I-23],90
2,Nc1cc(-c2ccc3occc3c2)nc(C(=O)OCc2ccc(F)cc2F)c1Cl [Example I-24],100
3,Nc1cc(-c2ccc3ccoc3c2)nc(C(=O)OCc2ccc(F)cc2)c1Cl [Example I-26],100
4,Nc1cc(-c2ccc3ccoc3c2)nc(C(=O)OCc2cc(F)c(F)cc2F)c1Cl [Example I-27],90
5,COc1c(F)ccc(COC(=O)c2nc(-c3ccc4ccoc4c3)cc(N)c2Cl)c1F [Example I-28],100

# Same assay, conditions: Table 7, post-emergence (PO), 320 g/ha, assessed after about 3 weeks
row,Structure (SMILES),Herbicidal action against ABUTH [%]
1,COc1c(F)ccc(COC(=O)c2nc(-c3ccc4occc4c3)cc(N)c2Cl)c1F [Example I-17],90

# Same assay, conditions: Table 8, post-emergence (PO), 320 g/ha, assessed after about 3 weeks
row,Structure (SMILES),Herbicidal action against ABUTH [%]
1,COc1c(F)ccc(COC(=O)c2nc(-c3ccc4occc4c3)cc(N)c2Cl)c1F [Example I-17],90

# System: AMARE
# Assay: Post-emergence herbicidal action
# Type: in vivo
# Conditions: Table 6, post-emergence (PO), 320 g/ha, assessed after about 3 weeks
# Procedure: as §3
row,Structure (SMILES),Herbicidal action against AMARE [%]
1,Nc1cc(-c2ccc3ccoc3c2)nc(C(=O)OCc2ccc(F)c(F)c2F)c1Cl [Example I-23],100
2,Nc1cc(-c2ccc3occc3c2)nc(C(=O)OCc2ccc(F)cc2F)c1Cl [Example I-24],100
3,Nc1cc(-c2ccc3ccoc3c2)nc(C(=O)OCc2ccc(F)cc2)c1Cl [Example I-26],100
4,Nc1cc(-c2ccc3ccoc3c2)nc(C(=O)OCc2cc(F)c(F)cc2F)c1Cl [Example I-27],100
5,COc1c(F)ccc(COC(=O)c2nc(-c3ccc4ccoc4c3)cc(N)c2Cl)c1F [Example I-28],100

# Same assay, conditions: Table 7, post-emergence (PO), 320 g/ha, assessed after about 3 weeks
row,Structure (SMILES),Herbicidal action against AMARE [%]
1,COc1c(F)ccc(COC(=O)c2nc(-c3ccc4occc4c3)cc(N)c2Cl)c1F [Example I-17],100

# Same assay, conditions: Table 8, post-emergence (PO), 320 g/ha, assessed after about 3 weeks
row,Structure (SMILES),Herbicidal action against AMARE [%]
1,COc1c(F)ccc(COC(=O)c2nc(-c3ccc4occc4c3)cc(N)c2Cl)c1F [Example I-17],100

# System: ECHCG
# Assay: Post-emergence herbicidal action
# Type: in vivo
# Conditions: Table 7, post-emergence (PO), 320 g/ha, assessed after about 3 weeks
# Procedure: as §3
row,Structure (SMILES),Herbicidal action against ECHCG [%]
1,COc1c(F)ccc(COC(=O)c2nc(-c3ccc4occc4c3)cc(N)c2Cl)c1F [Example I-17],90

# Same assay, conditions: Table 8, post-emergence (PO), 320 g/ha, assessed after about 3 weeks
row,Structure (SMILES),Herbicidal action against ECHCG [%]
1,COc1c(F)ccc(COC(=O)c2nc(-c3ccc4occc4c3)cc(N)c2Cl)c1F [Example I-17],90

# System: SETVI
# Assay: Post-emergence herbicidal action
# Type: in vivo
# Conditions: Table 6, post-emergence (PO), 320 g/ha, assessed after about 3 weeks
# Procedure: as §3
row,Structure (SMILES),Herbicidal action against SETVI [%]
1,Nc1cc(-c2ccc3ccoc3c2)nc(C(=O)OCc2ccc(F)c(F)c2F)c1Cl [Example I-23],90
2,Nc1cc(-c2ccc3occc3c2)nc(C(=O)OCc2ccc(F)cc2F)c1Cl [Example I-24],80
3,Nc1cc(-c2ccc3ccoc3c2)nc(C(=O)OCc2ccc(F)cc2)c1Cl [Example I-26],100
4,Nc1cc(-c2ccc3ccoc3c2)nc(C(=O)OCc2cc(F)c(F)cc2F)c1Cl [Example I-27],80
5,COc1c(F)ccc(COC(=O)c2nc(-c3ccc4ccoc4c3)cc(N)c2Cl)c1F [Example I-28],100

# Same assay, conditions: Table 7, post-emergence (PO), 320 g/ha, assessed after about 3 weeks
row,Structure (SMILES),Herbicidal action against SETVI [%]
1,COc1c(F)ccc(COC(=O)c2nc(-c3ccc4occc4c3)cc(N)c2Cl)c1F [Example I-17],100

# Same assay, conditions: Table 8, post-emergence (PO), 320 g/ha, assessed after about 3 weeks
row,Structure (SMILES),Herbicidal action against SETVI [%]
1,COc1c(F)ccc(COC(=O)c2nc(-c3ccc4occc4c3)cc(N)c2Cl)c1F [Example I-17],100

# System: STEME
# Assay: Post-emergence herbicidal action
# Type: in vivo
# Conditions: Table 6, post-emergence (PO), 320 g/ha, assessed after about 3 weeks
# Procedure: as §3
row,Structure (SMILES),Herbicidal action against STEME [%]
1,Nc1cc(-c2ccc3ccoc3c2)nc(C(=O)OCc2ccc(F)c(F)c2F)c1Cl [Example I-23],100
2,Nc1cc(-c2ccc3occc3c2)nc(C(=O)OCc2ccc(F)cc2F)c1Cl [Example I-24],80
3,Nc1cc(-c2ccc3ccoc3c2)nc(C(=O)OCc2ccc(F)cc2)c1Cl [Example I-26],100
4,Nc1cc(-c2ccc3ccoc3c2)nc(C(=O)OCc2cc(F)c(F)cc2F)c1Cl [Example I-27],100
5,COc1c(F)ccc(COC(=O)c2nc(-c3ccc4ccoc4c3)cc(N)c2Cl)c1F [Example I-28],100
